Experimental data published in patent publication US7862842B2, “Use of cationic preservative in food products” (priority 2001, dated 2011).

Columns and labels:
[1] = system: Arthrobacter oxydans ATCC 8010; test: minimum inhibitory concentration of LAE; assay type: cell-based; conditions: Gram + Bacteria
[2] = system: Bacillus cereus var mycoide ATCC 11778; test: minimum inhibitory concentration of LAE; assay type: cell-based; conditions: Gram + Bacteria
[3] = system: Bacillus subtilis ATCC 6633; test: minimum inhibitory concentration of LAE; assay type: cell-based; conditions: Gram + Bacteria
[4] = system: Clostridium perfringens ATCC 77454; assay type: cell-based; conditions: Gram + Bacteria
[5] = system: Listeria monocytogenes ATCC 7644; test: minimum inhibitory concentration of LAE; assay type: cell-based; conditions: Gram + Bacteria
[6] = system: Staphylococcus aureus ATCC 6538; test: minimum inhibitory concentration of LAE; assay type: cell-based; conditions: Gram + Bacteria
[7] = system: Micrococcus luteus ATCC 9631; test: minimum inhibitory concentration of LAE; assay type: cell-based; conditions: Gram + Bacteria
[8] = system: Lactobacillus delbrueckii ssp lactis CECT 372; test: minimum inhibitory concentration of LAE; assay type: cell-based; conditions: Gram + Bacteria
[9] = system: Leuconostoc mesenteroides CETC 912; test: minimum inhibitory concentration of LAE; assay type: cell-based; conditions: Gram + Bacteria
[10] = system: Alcaligenes faecalis ATCC 8750; test: minimum inhibitory concentration of LAE; assay type: cell-based; conditions: Gram − Bacteria
[11] = system: Bordetella bronchiseptica ATCC 4617; test: minimum inhibitory concentration of LAE; assay type: cell-based; conditions: Gram − Bacteria
[12] = system: Citrobacter freundii ATCC 22636; test: minimum inhibitory concentration of LAE; assay type: cell-based; conditions: Gram − Bacteria
[13] = system: Enterobacter aerogenes CECT 689; test: minimum inhibitory concentration of LAE; assay type: cell-based; conditions: Gram − Bacteria
[14] = system: Escherichia coli ATCC 8739; test: minimum inhibitory concentration of LAE; assay type: cell-based; conditions: Gram − Bacteria
Escherichia coli 0157H7 = test: minimum inhibitory concentration of LAE; assay type: cell-based; conditions: Gram − Bacteria
[15] = system: Klebsiella pneumoniae var pneumoniae CECT 178; test: minimum inhibitory concentration of LAE; assay type: cell-based; conditions: Gram − Bacteria
[16] = system: Proteus mirabilis CECT 170; test: minimum inhibitory concentration of LAE; assay type: cell-based; conditions: Gram − Bacteria
[17] = system: Pseudomonas aeruginosa ATCC 9027; test: minimum inhibitory concentration of LAE; assay type: cell-based; conditions: Gram − Bacteria
[18] = system: Salmonella typhimurium ATCC 16028; test: minimum inhibitory concentration of LAE; assay type: cell-based; conditions: Gram − Bacteria
[19] = system: Serratia marcenses CECT 274; test: minimum inhibitory concentration of LAE; assay type: cell-based; conditions: Gram − Bacteria
[20] = system: Mycobacterium phlei ATCC 41423; test: minimum inhibitory concentration of LAE; assay type: cell-based; conditions: listed under Gram − Bacteria
[21] = system: Aspergillus niger ATCC14604; test: minimum inhibitory concentration of LAE; assay type: cell-based; conditions: Fungi
[22] = system: Aureobasidium pullulans ATCC 9348; test: minimum inhibitory concentration of LAE; assay type: cell-based; conditions: Fungi
[23] = system: Gliocadium virens ATCC 4645; test: minimum inhibitory concentration of LAE; assay type: cell-based; conditions: Fungi
[24] = system: Chaetonium globosum ATCC 6205; test: minimum inhibitory concentration of LAE; assay type: cell-based; conditions: Fungi
[25] = system: Penicillium chrysogenum CECT 2802; test: minimum inhibitory concentration of LAE; assay type: cell-based; conditions: Fungi
[26] = system: Penicillium funiculosum CECT 2914; test: minimum inhibitory concentration of LAE; assay type: cell-based; conditions: Fungi
[27] = system: Candida albicans ATCC 10231; test: minimum inhibitory concentration of LAE; assay type: cell-based; conditions: Yeast
[28] = system: Rhodotorula rubra CECT 1158; test: minimum inhibitory concentration of LAE; assay type: cell-based; conditions: Yeast
[29] = system: Saccharomyces cerevisiae ATCC 9763; test: minimum inhibitory concentration of LAE; assay type: cell-based; conditions: Yeast
Aerobe Bacteria [30] = test: microbiological evolution in semi-preserved codfish in oil; assay type: cell-based; conditions: LAE 100 ppm, 4° C.
Protocol: (§1) The determination of the microbiological population is carried out according to the ISO standards.
(§2) The samples are treated by dilution in buffer peptone with the appropriate neutralising agent of the preservative. The culture media used for counting the microorganisms are: Soya triptone agar (32-35° C., 48 hours) for the determination of mesophilic bacteria; Sabouraud agar with chloramfenicol (25° C., 3-5 days) for fungi and yeast; Violet red bile glucose agar (32-35° C., 24 hours) for enterobacteria; Soya triptone agar (17° C., 5 days) for psychrotrophic bacteria.
(§3) The sample LAE was added to the oil assayed at a concentration of 100 ppm and its microbiological evolution at 4° C. was compared against a control.

Mould & yeast [31] = test: as above; assay type: cell-based; conditions: LAE 100 ppm, 4° C.
Protocol: as §1, §2, §3

Aerobe Bacteria [32] = test: evolution of bacteria in a chicken product; assay type: cell-based; conditions: LAE 150 ppm, 10° C.
Protocol: as §1, §2
(§4) The sample LAE was added to at a concentration of 150 ppm and the evolution of aerobe and psychrotrophic bacteria at 10° C. was compared against a control.

Psychro. Bacteria = test: evolution of bacteria in a chicken product; assay type: cell-based; conditions: LAE 150 ppm, 10° C.
Protocol: as §1, §2, §4

Aerobe Bacteria [33] = test: microbiological evolution in a carbonated orange beverage; assay type: cell-based; conditions: LAE 100 ppm, 17° C.
Protocol: as §1, §2
(§5) The sample LAE was added to at a concentration of 100 ppm and its microbiological evolution at 17° C. was compared against a control.

Mould & yeast [34] = test: as above; assay type: cell-based; conditions: LAE 100 ppm, 17° C.
Protocol: as §1, §2, §5

Aerobe Bacteria [35] = test: microbiological evolution in a blackberry juice; assay type: cell-based; conditions: LAE 60 ppm, 34° C.
Protocol: as §1, §2
(§6) The sample LAE was added to at a concentration of 60 ppm and its microbiological evolution at 34° C. was compared against a control.

Mould & yeast [36] = test: microbiological evolution in a blackberry juice; assay type: cell-based; conditions: LAE 60 ppm, 34° C.
Protocol: as §1, §2, §6

Aerobe Bacteria [37] = test: microbiological evolution in custard; assay type: cell-based; conditions: LAE 100 ppm, 25° C.
Protocol: as §1, §2
(§7) The sample LAE was added to at a concentration of 100 ppm and its microbiological evolution at 25° C. was compared against a control.

Anaerobe Bacteria = test: microbiological evolution in custard; assay type: cell-based; conditions: LAE 100 ppm, 25° C.
Protocol: as §1, §2, §7

Aerobe Bacteria [38] = test: microbiological evolution in fairy cakes; assay type: cell-based; conditions: LAE 80 ppm, 25° C.
Protocol: as §1, §2
(§8) The sample LAE was added to at a concentration of 80 ppm and its microbiological evolution at 25° C. was compared against a control.

Mould & yeast [39] = test: microbiological evolution in fairy cakes; assay type: cell-based; conditions: LAE 80 ppm, 25° C.
Protocol: as §1, §2, §8

Aerobe Bacteria [40] = test: microbiological evolution in veal stew; assay type: cell-based; conditions: LAE 100 ppm, 10° C.
Protocol: as §1, §2
(§9) The sample LAE was added to at a concentration of 100 ppm and its microbiological evolution at 10° C. was compared against a control.

Enterobacteria [41] = test: microbiological evolution in veal stew; assay type: cell-based; conditions: LAE 100 ppm, 10° C.
Protocol: as §1, §2, §9

Mould & yeast [42] = test: microbiological evolution in veal stew; assay type: cell-based; conditions: LAE 100 ppm, 10° C.
Protocol: as §1, §2, §9

Aerobe Bacteria [43] = test: microbiological evolution in ketchup; assay type: cell-based; conditions: LAE 100 ppm, 25° C.
Protocol: as §1, §2, §7

Enterobacteria [44] = test: microbiological evolution in ketchup; assay type: cell-based; conditions: LAE 100 ppm, 25° C.
Protocol: as §1, §2, §7

Mould & yeast [45] = test: microbiological evolution in ketchup; assay type: cell-based; conditions: LAE 100 ppm, 25° C.
Protocol: as §1, §2, §7

metabolism in rats = assay type: in vivo
toxicological studies = assay type: in vivo; conditions: animals and humans

## CCCCCCCCCCCC(=O)N[C@@H](CCCN=C(N)N)C(=O)OCC.Cl [LAE, ethyl ester of the lauramide of the arginine monohydrochloride]
[1]
  M.I.C.: 64 ppm
[2]
  M.I.C.: 32 ppm
[3]
  M.I.C.: 16 ppm
[4]
  M.I.C.: 16 ppm
[5]
  M.I.C.: 10 ppm
[6]
  M.I.C.: 32 ppm
[7]
  M.I.C.: 128 ppm
[8]
  M.I.C.: 16 ppm
[9]
  M.I.C.: 32 ppm
[10]
  M.I.C.: 64 ppm
[11]
  M.I.C.: 128 ppm
[12]
  M.I.C.: 64 ppm
[13]
  M.I.C.: 32 ppm
[14]
  M.I.C.: 32 ppm
Escherichia coli 0157H7
  M.I.C.: 20 ppm
[15]
  M.I.C.: 32 ppm
[16]
  M.I.C.: 32 ppm
[17]
  M.I.C.: 64 ppm
[18]
  M.I.C.: 32 ppm
[19]
  M.I.C.: 32 ppm
[20]
  M.I.C.: 2 ppm
[21]
  M.I.C.: 32 ppm
[22]
  M.I.C.: 16 ppm
[23]
  M.I.C.: 32 ppm
[24]
  M.I.C.: 16 ppm
[25]
  M.I.C.: 128 ppm
[26]
  M.I.C.: 16 ppm
[27]
  M.I.C.: 16 ppm
[28]
  M.I.C.: 16 ppm
[29]
  M.I.C.: 32 ppm
Aerobe Bacteria [30]; 0 days
  Aerobe Bacteria count: 7.6 · 10^3 cfu/g
Aerobe Bacteria [30]; 14 days
  Aerobe Bacteria count: 1.0 · 10^4 cfu/g
Aerobe Bacteria [30]; 43 days
  Aerobe Bacteria count: 8.5 · 10^4 cfu/g
Mould & yeast [31]; 0 days
  Mould & yeast count: 3.0 · 10^2 cfu/g
Mould & yeast [31]; 14 days
  Mould & yeast count: 5.4 · 10^3 cfu/g
Mould & yeast [31]; 43 days
  Mould & yeast count: 8.2 · 10^3 cfu/g
Aerobe Bacteria [32]; 0 days
  Aerobe Bacteria count: 1.2 · 10^5 cfu/g
Aerobe Bacteria [32]; 14 days
  Aerobe Bacteria count: 4.2 · 10^5 cfu/g
Aerobe Bacteria [32]; 43 days
  Aerobe Bacteria count: 6.1 · 10^5 cfu/g
Psychro. Bacteria; 0 days
  Psychro. Bacteria count: 3.0 · 10^4 cfu/g
Psychro. Bacteria; 14 days
  Psychro. Bacteria count: 7.1 · 10^4 cfu/g
Psychro. Bacteria; 43 days
  Psychro. Bacteria count: 6.8 · 10^4 cfu/g
Aerobe Bacteria [33]; 0 days
  Aerobe Bacteria count: 4.3 · 10^2 cfu/g
Aerobe Bacteria [33]; 14 days
  Aerobe Bacteria count: 1.0 · 10^2 cfu/g
Mould & yeast [34]; 0 days
  Mould & yeast count: <10 cfu/g
Mould & yeast [34]; 14 days
  Mould & yeast count: <10 cfu/g
Aerobe Bacteria [35]; 0 days
  Aerobe Bacteria count: 4.0 · 10^2 cfu/g
Aerobe Bacteria [35]; 14 days
  Aerobe Bacteria count: 2.4 · 10^3 cfu/g
Mould & yeast [36]; 0 days
  Mould & yeast count: <10 cfu/g
Mould & yeast [36]; 14 days
  Mould & yeast count: <10 cfu/g
Aerobe Bacteria [37]; 0 days
  Aerobe Bacteria count: <10 cfu/g
Aerobe Bacteria [37]; 5 days
  Aerobe Bacteria count: 1.1 · 10^3 cfu/g
Anaerobe Bacteria; 0 days
  Anaerobe Bacteria count: <10 cfu/g
Anaerobe Bacteria; 5 days
  Anaerobe Bacteria count: 4.1 · 10^2 cfu/g
Aerobe Bacteria [38]; 0 months
  Aerobe Bacteria count: <10 cfu/g
Aerobe Bacteria [38]; 3 months
  Aerobe Bacteria count: 1.1 · 10^2 cfu/g
Mould & yeast [39]; 0 months
  Mould & yeast count: <10 cfu/g
Mould & yeast [39]; 3 months
  Mould & yeast count: <10 cfu/g
Aerobe Bacteria [40]; 0 days
  Aerobe Bacteria count: <10 cfu/g
Aerobe Bacteria [40]; 14 days
  Aerobe Bacteria count: <10 cfu/g
Enterobacteria [41]; 0 days
  Enterobacteria count: <10 cfu/g
Enterobacteria [41]; 14 days
  Enterobacteria count: <10 cfu/g
Mould & yeast [42]; 0 days
  Mould & yeast count: <10 cfu/g
Mould & yeast [42]; 14 days
  Mould & yeast count: <10 cfu/g
Aerobe Bacteria [43]; 0 days
  Aerobe Bacteria count: <10 cfu/g
Aerobe Bacteria [43]; 14 days
  Aerobe Bacteria count: 2.2 · 10^3 cfu/g
Enterobacteria [44]; 0 days
  Enterobacteria count: <10 cfu/g
Enterobacteria [44]; 14 days
  Enterobacteria count: <10 cfu/g
Mould & yeast [45]; 0 days
  Mould & yeast count: <10 cfu/g
Mould & yeast [45]; 14 days
  Mould & yeast count: 1.4 · 10^1 cfu/g
Metabolism in rats
  absorption and metabolism: fast absorption and metabolisation into naturally-occurring amino acids and the fatty acid lauric acid
Toxicological studies
  toxicity: completely harmless to animals and humans
